Data published in patent publication US5147856A, “Method for inhibiting blood vessel blockage using octapeptide compositions” (Societe de Conseils de Recherches et d'Applications …, priority 1988, dated 1992).
“And” between values parts separate entries of the source, which are not always exact repeats. Identical values can stand only once.

Columns and labels:
[1] = tested on: Smooth Muscle Pig Left Coronary Artery Explants; assay: H3-thymidine incorporation in pig left coronary artery explants (Example 7); assay type: cell-based; settings: 24 hr, individual segments
Description: Domestic pig hearts were obtained from a slaughter house immediately after the animals were sacrificed. The hearts were harvested and placed in ice-cold Kreb's Ringer buffer and transported to the laboratory. The left coronary artery (LAD) was dissected in aseptic conditions and divided into pieces of 5 mm. The segments were denuded from the endothelium by gently introducing a metallic rod in the lumen. The tissues were placed in sterile multiwell culture dishes in 1 ml of culture media (DMEM with antibiotics) and without fetal calf serum. H^3 -thymidine (2.5 uCi/ml) and increasing concentrations of angiopeptin (10-1000 ng/ml) were added to the medium. Segments which were incubated with 3 different concentrations of forskolin were used as a positive control in each experiment. The incubation period was 24 hr at 37° C. and 5% CO2. The tissues were washed with phosphate saline buffer and placed in a solution of cold thymidine for one hour and then frozen in liquid nitrogen, ground and lysed with a hypotonic solution. The lysed tissues were further incubated with proteinase K overnight at 50° C. The radioactivity, content of protein and DNA were measured.

[2] = tested on: myointimal cell proliferation in the aortas of rabbits; assay: Rabbit aorta 72 hours after balloon angioplasty: wet weight, protein, DNA/protein, 3-H thymidine incorporation (Example 6); assay type: in vivo; settings: for DNA/Protein ratio, in words: FIG. 3; for Rates of cell proliferation by 3-H thymidine incorporation, in words: FIG. 4
Description: New Zealand White Rabbits were anesthetised with Rompun (Xylazine) and Ketalar (Ketamine) and a cannula (3F Fogarty) was inserted from the femoral artery. The balloon was inflated at a constant pressure and the aorta was de-endothelialised by angioplasty. The process was repeated three times and the wound site was closed. The animals were sacrificed 72 hours after balloon angioplasty and after removing the adventitia the aorta was cut into fine rings. These rings were incubated in the presence of 3-H thymidine and the radioactivity was determined after processing the tissue. Simultaneous measurements of DNA and protein contents were also made in these tissues.
Eight injections of Angiopeptin were made: on the morning and evening of the day prior to ballooning; two on the day of the procedure; and two on each of the following two days. The total daily dose was 2, 20, or 200 μg/Kg body weight.

CC(C)[C@@H]1NC(=O)[C@H](CCCCN)NC(=O)[C@@H](Cc2c[nH]c3ccccc23)NC(=O)[C@H](Cc2ccc(O)cc2)NC(=O)[C@@H](NC(=O)[C@H](N)Cc2ccc3ccccc3c2)CSSC[C@@H](C(=O)N[C@H](C(N)=O)[C@@H](C)O)NC1=O [Angiopeptin, D-Nal-Cys-Tyr-D-Trp-Lys-Val-Cys-Thr-NH2] was tested, and the “CPM (H3-thymidine radioactivity)” value ([1]; Angiopeptin 10 ng/ml) was 35113.84 CPM and 46392.32 CPM and 27312.80 CPM and 55980.00 CPM, the “CPM (H3-thymidine radioactivity)” value ([1]; Angiopeptin 20 ng/ml) was 26279.81 CPM and 39027.27 CPM and 39706.01 CPM and 21562.08 CPM and the “CPM (H3-thymidine radioactivity)” value ([1]; Angiopeptin 50 ng/ml) was 18942.16 CPM and 24269.18 CPM and 40768.09 CPM and 18983.78 CPM. The “CPM (H3-thymidine radioactivity)” value ([1]; Angiopeptin 100 ng/ml) was 20794.85 CPM and 32402.31 CPM and 22033.48 CPM and 26227.64 CPM, the “CPM (H3-thymidine radioactivity)” value ([1]; Angiopeptin 1000 ng/ml) was 18325.51 CPM and 27260.98 CPM and 30226.99 CPM and 32344.58 CPM and the “Total protein content of injured aortas, in words” value ([2]; 2 μg/kg, FIG. 2) was “lowered”. The “DNA/Protein ratio, in words” value ([2]; 20 μg/kg body weight) was “significantly lowered”, the “Rates of cell proliferation by 3-H thymidine incorporation, in words” value (“Rates of cell proliferation” for short) ([2]; 20 μg/kg body wt.) was “significantly lower” and the “DNA/Protein ratio, in words” value ([2]; 200 μg/kg body wt.) was “reflected the inhibitory influence”. For the same compound, the “Rates of cell proliferation” value ([2]; 200 μg/kg) was “still inhibited”, the “Wet weight of aortas, in words” value ([2]; 2, 20, 200 μg/kg body wt. total daily dose, FIG. 1) was “does not seem to influence” and the “Levels of total proteins, in words” value ([2]; higher doses (20 and 200 μg/kg), FIG. 2) was “did not affect”. The “Rates of cell proliferation” value ([2]; overall) was “significantly inhibited”.
